Laboratory results reported in US8741807B2 (priority 2011, dated 2014).
Entries after “also recorded” stand apart in the source; their conditions may differ.

Assays:
[1] = system: leaf blade of rice plant (variety name: Nipponbare); assay: Cell death spot formation on rice plant leaf blade after dropping spermidine derivative solution; type: in vivo; details: for formation of cell death spots: 1 mM aqueous solution (0.1% Tween 20), 5 μl dropped on rice leaf blade, visually evaluated; for severity of cell death compared with the compounds not introduced with hydroxyl group (Lau or ^1N Lau): same manner as Example 4, rice leaf blade
Text: (§1) It is known that spermidine treatment of leaf blades forms HR (Hypersensitive Response) like cell death spots in various plant species (Plant Physiol., 132(4), pp. 1973-1981, […]).
The results of examination for severity of cell death are shown in FIG. 12, and those for formation of cell death spots are shown in FIG. 13. The severity of cell death was enhanced by each of the compounds introduced with one hydroxyl group at the terminal carbon atom of the lauroyl group (HydLau: YIS12OH4N, 1NHydLau: YIS12OH1N) compared with the compounds not introduced with hydroxyl group (Lau or ^1N Lau).

[2] = system: rice plants at the five-leaf stage; details: 5 mM, no inoculation
[3] = system: rice blast fungus (Kyu89-246, MAFF101506, race 003.0); type: cell-based; details: for antifungal activity against the rice blast fungus: even at the 10 mM concentration; for formation of inhibition ring against the rice blast fungus: filter paper disks, 1 mM, 5 mM or 10 mM, 28° C., 5 to 6 days, light shielding
Arabidopsis thaliana = assay: Cell death in Arabidopsis thaliana by visual inspection; type: in vivo; details: same manner as Example 4, visual inspection, 3 and 7 days
Text: as §1

PR1 gene = PR1 gene expression enhancing action in Arabidopsis thaliana; type: in vivo; details: after 24 hours and 72 hours
[4] = system: leaf disks cut out from rice plant leaf blades; assay: Phytoalexin production in rice plant leaf disks immersed in aqueous solution; details: 0.5 mM aqueous solution, 72 hours; not so severe compared with copper chloride

## NCCCCNCCCN [Spd, Spermidine, reference compound]
[1]
  formation of cell death spots: observed only in a part of the treated leaves

## NCCCCNCCCNC(=O)CCCCCCCCCCCO [YIS12OH1N, 1-N-(12-hydroroxylauroyl)-spermidine]
[1]
  severity of cell death compared with the compounds not introduced with hydroxyl group (Lau or ^1N Lau): enhanced
[2]
  cell death spots when only the test compounds were sprayed: cell death spots were not observed
[3]
  antifungal activity against the rice blast fungus: did not have antifungal activity
  formation of inhibition ring against the rice blast fungus: Formation of inhibition ring was not observed
Arabidopsis thaliana
  cell death in Arabidopsis thaliana: induced severe cell death

## NCCCCN(CCCN)C(=O)CCCCCCCCCCCO [YIS12OH4N, ^4N-(12-hydroroxylauroyl)-spermidine]
[1]
  severity of cell death compared with the compounds not introduced with hydroxyl group (Lau or ^1N Lau): enhanced
PR1 gene
  PR1 gene expression enhancing action relative to 1NHydLau: about 3 times
[2]
  cell death spots when only the test compounds were sprayed: cell death spots were not observed
[3]
  antifungal activity against the rice blast fungus: did not have antifungal activity
  formation of inhibition ring against the rice blast fungus: Formation of inhibition ring was not observed
Arabidopsis thaliana
  cell death in Arabidopsis thaliana: induced severe cell death

## ^1N-lauroylspermidine [^1N Lau]
[1]
  formation of cell death spots: formation of fine cell death spots

## ^1N-nonanoylspermidine [^1N Non]
[1]
  formation of cell death spots: formation of fine cell death spots
Arabidopsis thaliana
  cell death in Arabidopsis thaliana: induced severe cell death

## ^4N-lauroylspermidine
[1]
  formation of cell death spots: formation of fine cell death spots; also recorded: potent cell death induction effect
[4]
  browning of leaf disks: browning of leaf disks
  phytoalexin accumulation: evident phytoalexin accumulation

## ^4N-nonanoylspermidine
[1]
  formation of cell death spots: formation of fine cell death spots
